Reference: US12590062B2, “PD-1/PD-L1 inhibitors” (Gilead Sciences, Inc., priority 2017, dated 2026)
pEC50: −log10 of the molar value.

What was measured:
PD-1/PD-L1 interaction = target: T1, PD-1/PD-L1 interaction (Homo sapiens, UniProt Q9NZQ7); experiment: PD-1/PD-L1 NFAT reporter co-culture assay; type: cell-based; conditions: Jurkat PD-1 NFAT-luciferase cells co-cultured with aAPC-PD-L1 CHO cells, 6 hrs at 37° C.; read-out: EC50 NFAT Luciferase
T1 construct: expressed in transfected cells; host or cells: CHO cells (aAPC-PD-L1) co-cultured with Jurkat cells overexpressing PD-1 and an NFAT-luciferase reporter
Outline: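 Restoration of TCR-driven NFAT luciferase signal: 6 h, 37 °C co-culture of PD-1 Jurkat reporter cells (pre-mixed with compound) on overnight-seeded PD-L1/anti-CD3 CHO monolayer. ONE-Glo luminescence; dose-response fitted to four-parameter equation for EC50.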

[1] = target: T2, interaction between the recombinant extracellular domain (ECD) of PD-1 and native cell-bound PD-L1 (Homo sapiens, UniProt Q9NZQ7); experiment: CHO/PD-L1 cell capture assay; type: cell-based; conditions: CHO cells overexpressing PD-L1, pre-incubated 1 hr with compound, captured on biotinylated Fc-PD-1 coated plates, 75 min at room temperature
T2 construct: expressed in transfected cells
Experimental: EC50-CHO/PD-L1-Capture Assay:
Compounds were tested in a cell capture assay to determine if they can specifically block the interaction between the recombinant extracellular domain (ECD) of PD-1 and native cell-bound PD-L1. Binding affinity of stable CHO cells overexpressing PD-L1 with its cognate recombinant ligand coated on plates was measured by counting the number of ‘captured’ cells. High-capacity streptavidin- coated plates were incubated with biotylated-Fc-PD-1 for 2 hours in PBS. Unbound ligand was washed out. CHO-PD-L1 cells (resuspended in PBS pH 7.4, 0.5 mM EDTA, and 2% bovine serum albumin) were pre-incubated for 1 hr with compound, dispensed into each PD-1 ECD coated well and then incubated for 75 min at room temperature. To stop the capture assay, a fixative/staining solution (final concentrations are 1.3% glutaraldehyde and 1.67 μM Draq5) was gently added to the cells and incubated for 2 hrs at room temperature. Unbound cells were then washed out and ‘captured’ cells were enumerated using a high-content microscopy system. EC50 values were calculated from the fit of the dose-response curves to a four-parameter equation. Representative data are shown below in Table 2.

T1 sequence (Q9NZQ7 19-290): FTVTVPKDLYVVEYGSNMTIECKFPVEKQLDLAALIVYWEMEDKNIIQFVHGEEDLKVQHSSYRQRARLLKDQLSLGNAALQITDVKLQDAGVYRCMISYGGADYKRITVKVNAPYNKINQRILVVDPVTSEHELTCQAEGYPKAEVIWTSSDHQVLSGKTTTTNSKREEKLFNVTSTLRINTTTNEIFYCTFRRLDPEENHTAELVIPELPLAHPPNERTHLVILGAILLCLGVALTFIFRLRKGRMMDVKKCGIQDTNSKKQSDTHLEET
T2 sequence (Q9NZQ7 19-290): as above

Row | pEC50 (PD-1/PD-L1 interaction) | pEC50 [1] | Compound
1 | 7.12 | 6.78 | COc1nc(OCc2cccc(-c3cccc(COc4nc(OC)c(CN[C@@](C)(CO)C(=O)O)cc4Br)c3C)c2C)c(Br)cc1CN[C@@](C)(CO)C(=O)O [Example 45, (2S,2′S)-2,2′-((((((2,2′-dimethyl-[1,1′-biphenyl]-3,3′-diyl)bis(methylene))bis(oxy))bis(5-bromo-2-methoxypyridine-6,3-diyl))bis(methylene))bis(azanediyl))bis(3-hydroxy-2-methylpropanoic acid)]
2 | 6.02 | 6.64 | Cc1c(COc2nc(OCC3CCO3)c(CNC[C@@H](O)CC(=O)O)cc2Br)cccc1-c1cccc(COc2nc(OCC3CCO3)c(CNC[C@@H](O)CC(=O)O)cc2Br)c1C (stereo partly drawn) [Example 131, (3S,3′S)-4,4′-((((((2,2′-dimethyl-[1,1′-biphenyl]-3,3′-diyl)bis(methylene))bis(oxy))bis(5-bromo-2-(oxetan-2-ylmethoxy)pyridine-6,3-diyl))bis(methylene))bis(azanediyl))bis(3-hydroxybutanoic acid)]
3 | 5.98 | 7.08 | COc1nc(OCc2cccc(-c3cccc(COc4nc(OC)c(CN(C)CC(=O)O)cc4Cl)c3C)c2C)c(Cl)cc1CN(C)CC(=O)O [Example 76, 2,2′-((((((2,2′-dimethyl-[1,1′-biphenyl]-3,3′-diyl)bis(methylene))bis(oxy))bis(5-chloro-2-methoxypyridine-6,3-diyl))bis(methylene))bis(methylazanediyl))diacetic acid]
4 | 6.36 | 7.04 | COc1nc(OCc2cccc(-c3cccc(COc4nc(OC)c(CN[C@H](C)[C@@H](O)CC(=O)O)cc4Cl)c3C)c2C)c(Cl)cc1CN[C@H](C)[C@@H](O)CC(=O)O [Example 182, (3S,3′S,4R,4′R)-4,4′-((((((2,2′-dimethyl-[1,1′-biphenyl]-3,3′-diyl)bis(methylene))bis(oxy))bis(5-chloro-2-methoxypyridine-6,3-diyl))bis(methylene))bis(azanediyl))bis(3-hydroxypentanoic acid)]
5 | 6.91 | 6.88 | Cc1c(COc2nc(OCc3cc(C#N)ccn3)c(CNC[C@@H](O)CC(=O)O)cc2Br)cccc1-c1cccc(COc2nc(OCc3cc(C#N)ccn3)c(CNC[C@@H](O)CC(=O)O)cc2Br)c1C [Example 148, (3S,3′S)-4,4′-((((((2,2′-dimethyl-[1,1′-biphenyl]-3,3′-diyl)bis(methylene))bis(oxy))bis(5-bromo-2-((4-cyanopyridin-2-yl)methoxy)pyridine-6,3-diyl))bis(methylene))bis(azanediyl))bis(3-hydroxybutanoic acid)]
6 | 6.15 | 6.87 | COc1nc(OCc2cccc(-c3cccc(COc4nc(OC)c(CNCCCC(N)=O)cc4Br)c3C)c2C)c(Br)cc1CNCCCC(N)=O [Example 116, 4,4′-((((((2,2′-dimethyl-[1,1′-biphenyl]-3,3′-diyl)bis(methylene))bis(oxy))bis(5-bromo-2-methoxypyridine-6,3-diyl))bis(methylene))bis(azanediyl))dibutanamide]
7 | 6.34 | 5.89 | COc1nc(O[C@H]2CCc3c(-c4cccc5c4CC[C@@H]5Oc4nc(OC)c(CNCC(=O)O)cc4Cl)cccc32)c(Cl)cc1CNCC(=O)O [Example 2, 2,2′-((((((1S,1′S)-2,2′,3,3′-tetrahydro-1H,1′H-[4,4′-biindene]-1,1′-diyl)bis(oxy))bis(5-chloro-2-methoxypyridine-6,3-diyl))bis(methylene))bis(azanediyl))diacetic acid]
8 | 6.40 | 6.73 | COc1nc(OCc2cccc(-c3cccc(COc4nc(OC)c(C[N+](C)(C)CC(=O)O)cc4Cl)c3C)c2C)c(Cl)cc1C[N+](C)(C)CC(=O)O [Example 78, 1,1′-((((2,2′-dimethyl-[1,1′-biphenyl]-3,3′-diyl)bis(methylene))bis(oxy))bis(5-chloro-2-methoxypyridine-6,3-diyl))bis(N-(carboxymethyl)-N,N-dimethylmethanaminium)]
9 | 6.16 | 7.52 | Cc1c(COc2cc(OCc3cncc(C#N)c3)c(CNC[C@@H](O)CC(=O)O)cc2Cl)cccc1-c1cccc(-c2ccc3cc(CNC[C@@H](O)CC(=O)O)ccc3c2)c1C [Example 31, (S)-4-(((6-(3′-((4-((((S)-3-carboxy-2-hydroxypropyl)amino)methyl)-2-chloro-5-((5-cyanopyridin-3-yl)methoxy)phenoxy)methyl)-2,2′-dimethyl-[1,1′-biphenyl]-3-yl)naphthalen-2-yl)methyl)amino)-3-hydroxybutanoic acid]
10 | 6.18 | 6.50 | COc1nc(OCc2cccc(-c3cccc(COc4nc(OC)c(CNC[C@@H](F)C(=O)O)cc4Cl)c3C)c2C)c(Cl)cc1CNC[C@@H](F)C(=O)O [Example 179, (2R,2′R)-3,3′-((((((2,2′-dimethyl-[1,1′-biphenyl]-3,3′-diyl)bis(methylene))bis(oxy))bis(5-chloro-2-methoxypyridine-6,3-diyl))bis(methylene))bis(azanediyl))bis(2-fluoropropanoic acid)]
11 | 6.68 | 6.64 | Cc1c(COc2cc(OCc3cncc(C#N)c3)c(CNC[C@@H](O)CC(=O)O)cc2Cl)cccc1-c1cccc(-c2ccc(OCCNC[C@@H](O)CC(=O)O)c(C(F)(F)F)c2)c1C [Example 94, (S)-4-((4-((4″-(2-(((S)-3-carboxy-2-hydroxypropyl)amino)ethoxy)-2,2′-dimethyl-3″-(trifluoromethyl)-[1,1′:3′,1″-terphenyl]-3-yl)methoxy)-5-chloro-2-((5-cyanopyridin-3-yl)methoxy)benzyl)amino)-3-hydroxybutanoic acid]
12 | 6.39 | 6.53 | COc1nc(OCc2cccc(-c3cccc(COc4nc(OC)c(CN5C[C@@H](O)C[C@H]5C(=O)O)cc4Cl)c3C)c2C)c(Cl)cc1CN1C[C@@H](O)C[C@H]1C(=O)O [Example 48, (2S,2′S,4S,4'S)-1,1′-(((((2,2′-dimethyl-[1,1′-biphenyl]-3,3′-diyl)bis(methylene))bis(oxy))bis(5-chloro-2-methoxypyridine-6,3-diyl))bis(methylene))bis(4-hydroxypyrrolidine-2-carboxylic acid)]
13 | 6.29 | 6.42 | COc1nc(O[C@H]2CCc3c(-c4cccc5c4CC[C@@H]5Oc4nc(OC)c(CNCC(=O)O)cc4Cl)cccc32)ccc1CNCC(=O)O [Example 1, ((6-(((1S,1′S)-1′-((5-(((carboxymethyl)amino)methyl)-3-chloro-6-methoxypyridin-2-yl)oxy)-2,2′,3,3′-tetrahydro-1H,1′H-[4,4′-biinden]-1-yl)oxy)-2-methoxypyridin-3-yl)methyl)glycine]
14 | 6.18 | 6.56 | COCCCOc1nc(OCc2cccc(-c3cccc(COc4nc(OCCCOC)c(CNC[C@@H](O)CC(=O)O)cc4Br)c3C)c2C)c(Br)cc1CNC[C@@H](O)CC(=O)O [Example 149, (3S,3′S)-4,4′-((((((2,2′-dimethyl-[1,1′-biphenyl]-3,3′-diyl)bis(methylene))bis(oxy))bis(5-bromo-2-(3-methoxypropoxy)pyridine-6,3-diyl))bis(methylene))bis(azanediyl))bis(3-hydroxybutanoic acid)]
